Data as given in US20060069132A1, “Azolecarboxamide herbicides” (priority 2004, published 2006).

Legend:
kochia = assay: Test C pre-/postemergence herbicide test; assay type: in vivo, Kochia scoparia; settings: for Kochia plant response rating: Preemergence, 500 g ai/ha, scale 0 to 100, 0 no effect, 100 complete control
Method in brief: (§1)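 Pre- and postemergence application, solvent/surfactant formulation; post at 1- to 4-leaf stage (2–18 cm). Greenhouse 12–14 d. Visual rating vs controls, 0 = no effect, 100 = complete control.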

bermudagrass = assay: Test C pre-/postemergence herbicide test; assay type: in vivo, Cynodon dactylon; settings: for Bermudagrass plant response rating: Preemergence, 500 g ai/ha
Method in brief: as §1

corn = assay: Test C pre-/postemergence herbicide test; assay type: in vivo, Zea mays; settings: for Corn plant response rating: Preemergence, 500 g ai/ha, scale 0 to 100, 0 no effect, 100 complete control
Method in brief: as §1

velvetleaf = assay: Test A pre-/postemergence herbicide test; assay type: in vivo, Abutilon theophrasti
Method in brief: (§2)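 Visual injury rating on a 0–100 scale (0 no effect, 100 complete control) versus untreated controls, about ten days after treatment in greenhouse. Pre: directed soil spray onto seeded sandy loam. Post: spray to runoff on plants 2–10 cm tall at one- to two-leaf stage.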

barnyardgrass = assay: Test A pre-/postemergence herbicide test; assay type: in vivo, Echinochloa crus-galli
Method in brief: as §2

large crabgrass [1] = assay: Test C pre-/postemergence herbicide test; assay type: in vivo, Digitaria sanguinalis; settings: for Crabgrass, Large plant response rating: Preemergence, 500 g ai/ha, scale 0 to 100, 0 no effect, 100 complete control
Method in brief: as §1

goosegrass = assay: Test C pre-/postemergence herbicide test; assay type: in vivo, Eleusine indica; settings: for Goosegrass plant response rating: Preemergence, 500 g ai/ha, scale 0 to 100, 0 no effect, 100 complete control
Method in brief: as §1

cocklebur = assay: Test C pre-/postemergence herbicide test; assay type: in vivo, Xanthium strumarium; settings: for Cocklebur plant response rating: Preemergence, 500 g ai/ha, scale 0 to 100, 0 no effect, 100 complete control
Method in brief: as §1

[2] = system: common (oilseed) sunflower; assay: Test C pre-/postemergence herbicide test; assay type: in vivo, Helianthus annuus; settings: for Sunflower plant response rating: Preemergence, 500 g ai/ha, scale 0 to 100, 0 no effect, 100 complete control
Method in brief: as §1

Surinam grass = assay: Test C pre-/postemergence herbicide test; assay type: in vivo, Urochloa decumbens; settings: for Surinam Grass plant response rating: Preemergence, 500 g ai/ha, scale 0 to 100, 0 no effect, 100 complete control
Method in brief: as §1

large crabgrass [3] = assay: Test A pre-/postemergence herbicide test; assay type: in vivo, Digitaria sanguinalis
Method in brief: as §2

giant foxtail = assay: Test C pre-/postemergence herbicide test; assay type: in vivo, Setaria faberi; settings: for Foxtail, Giant plant response rating: Preemergence, 500 g ai/ha, scale 0 to 100, 0 no effect, 100 complete control
Method in brief: as §1

[4] = 125 g ai/ha, scale 0 (no effect) to 100 (complete control), visual, 12 to 14 days, preemergence
[5] = 250 g ai/ha, scale 0 to 100 (0 no effect, 100 complete control), visual, 12 to 14 days, preemergence
[6] = scale 0 to 100, 0 no effect, 100 complete control
[7] = Postemergence, 250 g ai/ha, 0 to 100 scale, 0 no effect, 100 complete control
[8] = Postemergence, 1000 g ai/ha, 0 to 100 scale, 0 no effect, 100 complete control
[9] = Preemergence, 1000 g ai/ha, visual rating, 0 to 100 scale (0 no effect, 100 complete control)
[10] = preemergence, 250 g ai/ha, visual injury, 0 to 100 scale (0 no effect, 100 complete control)
[11] = 62 g ai/ha, preemergence, scale 0 to 100
[12] = 250 g ai/ha, scale 0-100, preemergence
[13] = Postemergence, 500 g ai/ha, 0 to 100 scale, 0 no effect, 100 complete control
[14] = Postemergence, 2000 g ai/ha, 0 to 100 scale, 0 no effect, 100 complete control
[15] = Preemergence, 2000 g ai/ha, visual rating, 0 to 100 scale (0 no effect, 100 complete control)
[16] = preemergence, 500 g ai/ha, visual injury, 0 to 100 scale (0 no effect, 100 complete control)

CCn1nc(C(C)(C)C)cc1C(=O)Nc1cccc(S(=O)(=O)C(F)(F)F)c1 [Compound 134]
Plant response rating (0 = no effect, 100 = complete control), Kochia (kochia; 62 g ai/ha, preemergence): 85
Plant response rating, Kochia (kochia; [4]): 100
Kochia plant response rating (kochia): 100
Plant response rating (0 = no effect, 100 = complete control), Bermudagrass (bermudagrass; 62 g ai/ha, preemergence): 80
Plant response rating, Bermudagrass (bermudagrass; [4]): 95
Plant response rating, Bermudagrass (bermudagrass; [5]): 95
Bermudagrass plant response rating (bermudagrass; [6]): 100
Plant response rating (0 = no effect, 100 = complete control), Corn (corn; 62 g ai/ha, preemergence): 0
Plant response rating, Corn (corn; [4]): 0
Plant response rating, Corn (corn; [5]): 0
Corn plant response rating (corn): 60
Velvetleaf plant response rating (velvetleaf; [7]): 20
Plant response rating, Velvetleaf (velvetleaf; [8]): 20
Velvetleaf plant response rating (velvetleaf; [9]): 40
Velvetleaf plant response rating (velvetleaf; [10]): 15
Barnyardgrass plant response rating (barnyardgrass; [7]): 30
Plant response rating, Barnyardgrass (barnyardgrass; [8]): 70
Barnyardgrass plant response rating (barnyardgrass; [9]): 45
Barnyardgrass plant response rating (barnyardgrass; [10]): 25
Plant response rating (0 = no effect, 100 = complete control), Crabgrass, Large (large crabgrass [1]; 62 g ai/ha, preemergence): 65
Plant response rating, Crabgrass, Large (large crabgrass [1]; [4]): 95
Plant response rating, Crabgrass, Large (large crabgrass [1]; [5]): 95
Crabgrass, Large plant response rating (large crabgrass [1]): 100
Plant response rating (0 = no effect, 100 = complete control), Goosegrass (goosegrass; 62 g ai/ha, preemergence): 20
Plant response rating, Goosegrass (goosegrass; [4]): 65
Goosegrass plant response rating (goosegrass): 95
Plant response rating (0 = no effect, 100 = complete control), Cocklebur (cocklebur; 62 g ai/ha, preemergence): 0
Plant response rating, Cocklebur (cocklebur; [4]): 0
Plant response rating, Cocklebur (cocklebur; [5]): 0
Cocklebur plant response rating (cocklebur): 0
Plant response rating (0 = no effect, 100 = complete control), Sunflower ([2]; 62 g ai/ha, preemergence): 0
Plant response rating, Sunflower [2, 4]: 0
Sunflower plant response rating [2]: 0
Plant response rating (0 = no effect, 100 = complete control), Surinam Grass (Surinam grass; 62 g ai/ha, preemergence): 0
Plant response rating, Surinam Grass (Surinam grass; [4]): 15
Surinam Grass plant response rating (Surinam grass): 75
Crabgrass, Large plant response rating (large crabgrass [3]; [7]): 20
Plant response rating, Crabgrass, Large (large crabgrass [3]; [8]): 35
Crabgrass, Large plant response rating (large crabgrass [3]; [9]): 95
Crabgrass, Large plant response rating (large crabgrass [3]; [10]): 35
Plant response rating (0 = no effect, 100 = complete control), Foxtail, Giant (giant foxtail; 62 g ai/ha, preemergence): 0
Plant response rating, Foxtail, Giant (giant foxtail; [4]): 0
Plant response rating, Foxtail, Giant (giant foxtail; [5]): 0
Foxtail, Giant plant response rating (giant foxtail): 85

C=CCNC(=O)c1cccc(NC(=O)c2sc(C(C)(C)C)nc2C)c1 [Compound 202]
Plant response rating, Kochia (kochia; [11]): 60
Plant response rating, Kochia (kochia; [4]): 85
Plant response rating, Kochia (kochia; [12]): 85
Kochia plant response rating (kochia): 95
Plant response rating, Bermudagrass (bermudagrass; 62 g ai/ha, preemergence, scale 0 to 100, 0 no effect, 100 complete control): 20
Plant response rating, Bermudagrass (bermudagrass; [4]): 85
Plant response rating, Bermudagrass (bermudagrass; [12]): 95
Bermudagrass plant response rating (bermudagrass; [6]): 100
Plant response rating, Corn (corn; [11]): 0
Plant response rating, Corn (corn; [4]): 0
Plant response rating, Corn (corn; [12]): 0
Corn plant response rating (corn): 10
Velvetleaf plant response rating (velvetleaf; [13]): 30
Plant response rating, Velvetleaf (velvetleaf; [14]): 30
Velvetleaf plant response rating (velvetleaf; [15]): 85
Velvetleaf plant response rating (velvetleaf; [16]): 35
Barnyardgrass plant response rating (barnyardgrass; [13]): 45
Plant response rating, Barnyardgrass (barnyardgrass; [14]): 80
Barnyardgrass plant response rating (barnyardgrass; [15]): 80
Barnyardgrass plant response rating (barnyardgrass; [16]): 45
Plant response rating, Crabgrass, Large (large crabgrass [1]; [11]): 80
Plant response rating, Crabgrass, Large (large crabgrass [1]; [4]): 95
Plant response rating, Crabgrass, Large (large crabgrass [1]; [12]): 95
Crabgrass, Large plant response rating (large crabgrass [1]): 95
Plant response rating, Goosegrass (goosegrass; [11]): 20
Plant response rating, Goosegrass (goosegrass; [4]): 85
Plant response rating, Goosegrass (goosegrass; [12]): 90
Goosegrass plant response rating (goosegrass): 95
Plant response rating, Cocklebur (cocklebur; [11]): 0
Plant response rating, Cocklebur (cocklebur; [4]): 0
Plant response rating, Cocklebur (cocklebur; [12]): 10
Cocklebur plant response rating (cocklebur): 20
Plant response rating, Sunflower [2, 11]: 0
Plant response rating, Sunflower [2, 4]: 0
Plant response rating, Sunflower [2, 12]: 10
Sunflower plant response rating [2]: 10
Plant response rating, Surinam Grass (Surinam grass; [11]): 10
Plant response rating, Surinam Grass (Surinam grass; [4]): 20
Plant response rating, Surinam Grass (Surinam grass; [12]): 40
Surinam Grass plant response rating (Surinam grass): 60
Crabgrass, Large plant response rating (large crabgrass [3]; [13]): 30
Plant response rating, Crabgrass, Large (large crabgrass [3]; [14]): 65
Crabgrass, Large plant response rating (large crabgrass [3]; [15]): 100
Crabgrass, Large plant response rating (large crabgrass [3]; [16]): 85
Plant response rating, Foxtail, Giant (giant foxtail; [11]): 0
Plant response rating, Foxtail, Giant (giant foxtail; [4]): 40
Plant response rating, Foxtail, Giant (giant foxtail; [12]): 80
Foxtail, Giant plant response rating (giant foxtail): 100
